Results taken from ChEMBL document CHEMBL5316282, “Small-Molecule Cyanamide Pan-TEAD·YAP1 Covalent Antagonists” (J Med Chem, 2023).
Activity calls are given as the source filed them. No cut-off for these calls is given here.

Tests used:
[1] = target: T1, Transcriptional enhancer factor TEF-4 (Homo sapiens, UniProt Q15562); experiment: Displacement of FAM- labeled YAP1 peptide (60 to 99 residues) from human TEAD2 (217 to 447 residues) expressed in Escherichia coli BL21 (DE3) cells assessed as maximum inhibition at 0.2 to 100 uM incubated for 24 hrs by fluorescence polarization-based competitive binding assay relative to control; settings: dose 0.2-100 µM
[2] = target: T2, Transcriptional enhancer factor TEF-1 (Homo sapiens, UniProt P28347); experiment: Displacement of FAM- labeled YAP1 peptide (60 to 99 residues) from human TEAD1 (209 to 426 residues) expressed in Escherichia coli BL21 (DE3) cells incubated for 24 hrs by fluorescence polarization-based competitive binding assay
[3] = target: Transcriptional enhancer factor TEF-5 (Homo sapiens, UniProt Q99594); experiment: Displacement of FAM- labeled YAP1 peptide (60 to 99 residues) from human TEAD3 (210 to 427 residues) expressed in Escherichia coli BL21 (DE3) cells incubated for 24 hrs by fluorescence polarization-based competitive binding assay
[4] = target: T3, Transcriptional enhancer factor TEF-3 (Homo sapiens, UniProt Q15561); experiment: Displacement of FAM- labeled YAP1 peptide (60 to 99 residues) from human TEAD4 (217 to 434 residues) expressed in Escherichia coli BL21 (DE3) cells incubated for 24 hrs by fluorescence polarization-based competitive binding assay
[5] = tested on: MDA-MB-468; experiment: Inhibition of TEAD in human MDA-MB-468 cells assessed as maximal inhibition of CTGF transcriptional level at 0.01 to 100 uM incubated for 24 hrs by qRT-PCR assay relative to control; assay type: cell-based; settings: dose 0.01-100 µM
[6] = target: T1, Transcriptional enhancer factor TEF-4; experiment: Displacement of FAM- labeled YAP1 peptide (60 to 99 residues) from human TEAD2 (217 to 447 residues) expressed in Escherichia coli BL21 (DE3) cells incubated for 24 hrs by fluorescence polarization-based competitive binding assay
[7] = target: T3, Transcriptional enhancer factor TEF-3; experiment: Inhibition of TEAD4 (unknown origin) transfected in human HEK293 cells co-transfected with renilla plasmid assessed as inhibition of transcriptional activity incubated for 24 hrs by dual Glo-luciferase reporter assay; assay type: cell-based
[8] = Inhibition of TEAD in human MDA-MB-468 cells assessed as inhibition of CTGF transcriptional level incubated for 24 hrs by qRT-PCR assay; assay type: cell-based
[9] = target: T3, Transcriptional enhancer factor TEF-3; experiment: Inhibition of TEAD4 (unknown origin) transfected in human HEK293 cells co-transfected with renilla plasmid assessed as maximum inhibition of transcriptional activity at 0.01 to 100 uM incubated for 24 hrs by dual Glo-luciferase reporter assay relative to control; assay type: cell-based; settings: dose 0.01-100 µM
[10] = tested on: Transcriptional enhancer factor TEF-3 (Homo sapiens), Q15561 [C367S]; experiment: Displacement of FAM- labeled YAP1 peptide (60 to 99 residues) from human TEAD4 (217 to 434 residues) C367S mutant expressed in Escherichia coli BL21 (DE3) cells at 0.2 to 100 uM incubated for 24 hrs by fluorescence polarization-based competitive binding assay; settings: dose 0.2-100 µM
[11] = target: T2, Transcriptional enhancer factor TEF-1; experiment: Inhibition of TEAD1 (unknown origin) transfected in human HEK293 cells co-transfected with renilla plasmid assessed as maximum inhibition of transcriptional activity at 10 uM incubated for 24 hrs by dual Glo-luciferase reporter assay relative to control; assay type: cell-based
[12] = target: T1, Transcriptional enhancer factor TEF-4; experiment: Inhibition of TEAD2 (unknown origin) transfected in human HEK293 cells co-transfected with renilla plasmid assessed as maximum inhibition of transcriptional activity at 10 uM incubated for 24 hrs by dual Glo-luciferase reporter assay relative to control; assay type: cell-based
[13] = Homo sapiens, MDA-MB-468, 24 h, read-out: IC50

Chain of Transcriptional enhancer factor TEF-5 (Q99594 whole entry, the tested form may be a part): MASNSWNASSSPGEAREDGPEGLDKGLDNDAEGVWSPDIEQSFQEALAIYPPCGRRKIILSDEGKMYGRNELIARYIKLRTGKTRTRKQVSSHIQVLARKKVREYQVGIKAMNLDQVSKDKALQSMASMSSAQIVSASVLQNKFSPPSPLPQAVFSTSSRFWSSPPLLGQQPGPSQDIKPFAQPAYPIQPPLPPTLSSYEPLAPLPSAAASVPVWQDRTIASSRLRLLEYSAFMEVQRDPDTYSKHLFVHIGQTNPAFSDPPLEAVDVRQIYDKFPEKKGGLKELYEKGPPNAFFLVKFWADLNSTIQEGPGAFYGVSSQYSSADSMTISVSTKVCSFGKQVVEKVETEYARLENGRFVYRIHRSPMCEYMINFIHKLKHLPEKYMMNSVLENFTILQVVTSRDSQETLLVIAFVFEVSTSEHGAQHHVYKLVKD
T3 sequence (Q15561 whole entry, the tested form may be a part): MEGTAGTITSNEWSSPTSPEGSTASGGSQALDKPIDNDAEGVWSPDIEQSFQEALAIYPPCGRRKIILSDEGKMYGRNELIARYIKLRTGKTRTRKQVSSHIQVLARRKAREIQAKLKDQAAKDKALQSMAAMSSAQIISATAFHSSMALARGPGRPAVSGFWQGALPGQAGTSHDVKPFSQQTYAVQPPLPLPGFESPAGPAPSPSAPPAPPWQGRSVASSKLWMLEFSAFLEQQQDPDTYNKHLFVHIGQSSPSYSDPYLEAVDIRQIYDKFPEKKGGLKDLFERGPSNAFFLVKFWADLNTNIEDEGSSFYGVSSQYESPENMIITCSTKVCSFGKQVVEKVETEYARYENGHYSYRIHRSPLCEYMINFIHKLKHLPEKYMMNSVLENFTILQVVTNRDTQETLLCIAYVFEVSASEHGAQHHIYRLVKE
T1 sequence (Q15562 whole entry, the tested form may be a part): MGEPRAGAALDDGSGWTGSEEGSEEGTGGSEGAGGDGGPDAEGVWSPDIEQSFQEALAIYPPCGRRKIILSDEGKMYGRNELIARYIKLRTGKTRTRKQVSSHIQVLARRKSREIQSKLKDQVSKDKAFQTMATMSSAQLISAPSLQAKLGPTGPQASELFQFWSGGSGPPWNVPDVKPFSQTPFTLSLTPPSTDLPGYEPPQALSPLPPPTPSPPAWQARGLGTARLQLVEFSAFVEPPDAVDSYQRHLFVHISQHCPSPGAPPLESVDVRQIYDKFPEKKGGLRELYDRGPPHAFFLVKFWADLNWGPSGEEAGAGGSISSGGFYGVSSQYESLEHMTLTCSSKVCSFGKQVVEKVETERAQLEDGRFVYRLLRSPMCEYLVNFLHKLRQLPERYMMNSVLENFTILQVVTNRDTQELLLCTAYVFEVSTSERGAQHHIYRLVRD
T2 sequence (P28347 whole entry, the tested form may be a part): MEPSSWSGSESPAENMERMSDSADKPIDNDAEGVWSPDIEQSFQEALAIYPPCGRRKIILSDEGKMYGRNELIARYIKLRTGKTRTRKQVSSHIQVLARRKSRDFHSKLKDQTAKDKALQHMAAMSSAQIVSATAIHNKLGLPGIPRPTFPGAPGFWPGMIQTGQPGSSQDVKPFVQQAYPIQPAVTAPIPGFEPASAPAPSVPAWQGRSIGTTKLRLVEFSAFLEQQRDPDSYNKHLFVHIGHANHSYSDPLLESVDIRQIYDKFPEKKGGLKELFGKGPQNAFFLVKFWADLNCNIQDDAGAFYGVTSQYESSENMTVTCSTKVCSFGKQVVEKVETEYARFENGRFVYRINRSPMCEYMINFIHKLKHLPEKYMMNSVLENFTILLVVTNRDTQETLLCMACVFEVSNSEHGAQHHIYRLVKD
Chain of Transcriptional enhancer factor TEF-3 (Homo sapiens), Q15561 [C367S] (Q15561 whole entry C367S, the tested form may be a part): as the sequence (Q15561 whole entry, the tested form may be a part) above, with C367S counted along it

SMILES	Imax [1] [%]	IC50 ([2]; read-out: IC50) [nM]	IC50 [3]	IC50 ([4]; read-out: IC50) [nM]	Imax [5]	IC50 [6] [nM]	IC50 ([7]; hek293)	IC50 ([8]; mda-mb-468)	IC50 ([7]; read-out: IC50) [nM]	Imax [9] [%]	IC50 [8, 13] [nM]	inhibition [10]	IC50 [2]	IC50 [4]	inhibition [11]	inhibition [12] [%]
N#CN1CC2CCCC(Nc3ccc(C(F)(F)F)cc3)C2C1 (stereo not drawn)	39	1500	Not Active	20100	inactive	16100	Not Active	Not Active	–	–	–	–	–	–	–	–
N#CN1Cc2cccc(Nc3ccccc3C(F)(F)F)c2C1	40	1300	Not Active	5400	36.7%	2100	–	–	10500	98.7	5500	inactive	–	–	–	–
N#CN1CC2CCCC(Nc3ccccc3C(F)(F)F)C2C1 (stereo not drawn)	20	–	Not Active	–	41.1%	7500	Not Active	–	–	–	2200	–	Not Active	Not Active	–	–
COc1ccc2c(c1Nc1cccc(C(F)(F)F)c1)CN(C#N)C2	42	300	Not Active	200	45.3%	1700	–	–	300	41.3	300	inactive	–	–	inactive	50
